Source: patent US7018614B2, “Stabilization of radiopharmaceuticals labeled with 18-F” (Eastern Isotopes, Inc., priority 2002, dated 2006)

Experiment: Stability of FDG solution against radiolysis: Radio Chemical Purity (RCP) by TLC after storage
Format: physicochemical
Procedure: In all experiments, the RCP was determined using a standard Thin Layer Chromatography (TLC) method using 10 cm silica-coated glass plates supplied by Alltech (Deerfield, Ill.). A 95:5 mixture of acetonitrile and water was used as a mobile phase and a TLC plate scanner supplied by Bioscan (Washington, D.C.) was used to measure the radioactivity distribution on the plate. In most cases, the sample size was less than 1 μl.
[…] It should be noted, however, that most of the radiolysis takes place in the first 3–6 hours due to the fact that the radioactivity concentration decreases exponentially over time with a half-life of 1.82 hours. After 6 hours, only about 10% of the radioactivity remains and is probably not sufficient to cause any significant decomposition of the product.
In this experiment, the final product was prepared with an initial activity concentration of 10.8 GBq/ml (292 mCi/ml). […] Samples were kept in tightly sealed vials identical to those used for storage and delivery of FDG to customers. […]
It was added in an amount calculated to result, after dilution with water, in about a 0.05% concentration in the final product.
Samples 1, 2, and 3, each of 2 ml, were taken from the final product. To see if storage conditions affected the results, samples 1 and 2 were stored in vials while sample 3 was stored in a syringe identical to those that are used to deliver FDG to users. […]

[^18F] 2-Fluoro-2-Deoxy-D-glucose [FDG]
RCP after decline as a result of radiolysis (over a period of less than 12 hours, high activity concentration): less than 90% | RCP at the end of production (typical value, end of production): 98–100%
